Laboratory results taken from patent US20240139220A1, “TREATMENT OF HPV INFECTION” (priority 2022, published 2024).

Experiment: Ex vivo permeation and penetration across porcine vaginal tissue (Franz diffusion cells, IVPT)
Format: in vitro ADME
Text: FIG. 116 is an in vitro tissue permeation test in vaginal tissue comparing Compound II to ABI-1968. […] Bars B and C show the tissue penetration of a 0.1% Compound II gel in […]. […] This may be a contributing factor to the performance of ABI-1968 in clinical studies. […] This is described in Example 41.
Freshly harvested porcine vaginal tissue was procured from local slaughterhouse in an ice box. The vaginal tissue was cut open to expose the mucosal surface and tissue was cleaned by gentle flow of PBS pH 7.4. The porcine vaginal tissue was cut into circular portions (approximately 2 cm^2) with help of a […] punch.
The circular portion of tissue was sandwiched between two chambers of a Franz diffusion cell with an active diffusion area of 1 cm^2, and the mucosal layer was exposed to the donor chambers. The resistance across porcine vaginal tissue was measured using a wave form generator to ensure the integrity of the tissue segment used for the permeation study. Porcine vaginal tissue with resistance of ≥3 KΩ.cm^2 was used for study. The receiver chamber was filled with 8 ml of 5% solutol PBS 7.4 pH, which was stirred at 600 rpm with a 3 mm magnetic stir bar and the temperature was maintained at 37° C. with a circulating water bath.
The ˜200 mg of gel was filled into tared 1 mL syringe and gel was dispensed to donor chamber. The gel was spread on to mucosal surface with pre weighed applicator. After loading and spreading of the gel onto surface of mucosal surface, the weight of 1 mL syringe and applicator was noted to determine the exact amount of gel loaded into donor chamber.
Time course (2 h, 4 h and 8 h) porcine vaginal permeation studies were performed. After loading gel, 500 μL samples were withdrawn from the receiver compartment at different time intervals and each time an equal volume of fresh receiver media was used to replace withdrawn samples. The sample withdrawn at each time interval were stored immediately in −20° C. until analysis. After 2, 4 and 8 h, the formulation was removed from the donor chamber with help of syringe and cleaned with cotton swab. The tissue was removed and washed gently with wash solution (50% methanol in water) 5 times and alternatively cleaning with cotton swab.
An 8 mm punch of active diffusion area of washed porcine vaginal tissue was removed, weighed and transferred into a tube. This tube was immediately placed into dry ice for ˜15 min. After specified time, tissue was removed and placed in precooled dish. The tissue was minced into smaller pieces on a dish with a precooled surgical blade. The minced tissue was transferred to sample tubes and dish was rinsed with 1 ml of 5% solutol in PBS 7.4 pH and transferred to same tissue sample tube. These tubes were stored in −70° C. until analysis.
The samples stored at −20° C. was removed and thawed at room temperature for 30 min. The drug from receptor fluid was centrifuged at 13000 rpm for 5 min and to 200 μL of supernatant equal volume of extraction solvent was added. These samples were centrifuged at 13000 rpm for 5 min and supernatant was transferred into vials for analysis.
The minced tissue samples stored at −70° C. were removed and thawed at room temperature for ˜90 min. The samples were kept for shaking at room temperature for 4 h in BioShaker. After 4 h, samples were centrifuged at 13000 rpm for 5 min. To 100 μL of supernatant, 400 μL of extraction solvent was added and vortexed for 2 min. […]

| Structure (SMILES) | Concentration in vaginal tissue (0.1% dose, porcine and human tissues (FIG. 116)) | Concentration in vaginal tissue (3% dose (FIG. 116)) | Tissue penetration (porcine vaginal tissue, FIG. 116, Compound II 0.1% gel, ABI-1968 1% and 3% formulations) | Tissue concentration (up to a 3% dose (Bar F and G in FIG. 116)) |
| --- | --- | --- | --- | --- |
| CCOC(=O)[C@H](C)NP(=O)(COCCn1cnc2c(OC)nc(N)nc21)OCc1ccccc1.O=C(O)/C=C/C(=O)O (mixture of isomers) [Compound I monofumarate, (±)-(2S)-ethyl-2-((((2-(2-amino-6-methoxy-9H-purin-9-yl)-ethoxy)-methyl)-(benzyloxy)-phosphoryl)-amino)-propionate monofumarate] | 40 to 85 ng/mL | – | – | – |
| CCCCCCCCCCCCCCCCCCOCCOP(=O)(O)COCCn1cnc2c(=O)[nH]c(N)nc21 [ABI-1968] | – | < 15 ng/mL | substantially smaller degree | < 15 ng/mg |
